Data as given in patent US9682967B2.

Assays:
mSortilin = mSortilin (Mus musculus (Mouse), UniProt Q6PHU5); test: mSortilin affinity assay (displacement of 3H-neurotensin, SPA); format: binding
Procedure: Mouse his-Sortilin was purchased from R&D Systems.
The Sortilin assay was performed in total volume of 40 ul in 50 mM HEPES pH 7.4 assay buffer containing 100 mM NaCl, 2.0 mM CaCl2, 0.1% BSA and 0.1% Tween-20. Varying concentration of compounds where pre-incubated for 30 min at RT with 50 nM of 6his-Sortilin. […] Ni chelate imaging beads (Perkin elmer) was added and the plate was slowly shacked in the dark for 60 min. The imaging beads were allowed minimum 6 hours settling time before the plate was read on a ViewLux with 360 sec exposure time. Dose-response evaluation of compounds was performed with 10 concentrations of drugs (covering 3 decades). IC50 values were calculated by nonlinear regression using the sigmoid concentration-response (variable slope) using Xlfit 4 (IDBS, UK). The results were given as Ki values (nM) derived from computer fitted IC50 values converted to Ki values using the Cheng-Prusoff equation (Ki=IC50/(1+(L/Kd))).

[1] = molecular target: human sortilin (HEK 293 / S-18 cells) (Homo sapiens (Human), UniProt Q99523); test: Cellomics progranulin assay (PGRN binding/endocytosis, staining intensity); format: cell-based; details: compounds 30 min, then PGRN 60 min
Procedure: Cellomics Progranulin Assay
Transfected HEK 293 cells (with control or sortilin expression plasmids) or stable HEK293 cells expressing human sortilin (S-18) were used in this assay. Cells are trypsinized and plated in 96 well plates. In the case of transiently transfected cells, they were plated 24 hrs after transfection in 96 well plates. Next day, media was changed completely and test compounds added to cells for 30 min. followed by PGRN for 60 min. At the end of the study (after 1.5 hrs), the cells were fixed and stained for sortilin and progranulin. All stained plates were analyzed by Cellomics Array Scan (Thermo Fischer) and average staining intensity for PGRN and sortilin are calculated per cell in each well.

[2] = molecular target: human sortilin (S-18 cells) (Homo sapiens (Human), UniProt Q99523); test: Endogenous PGRN endocytosis assay (PGRN ELISA of media); format: cell-based; details: for PGRN levels in cell culture media (FIG. 1): PGRN allowed to accumulate 24 hrs, then compounds for further 24 hrs
hSortilin = hSortilin (Homo sapiens (Human), UniProt Q99523); test: hSortilin affinity assay (displacement of 3H-neurotensin, SPA); format: binding; details: for IC50: [3H]-Neurotensin 5 nM, 150 nM 6his-Sortilin, read-out: hSortilin NTS Binding IC50; for Ki: from IC50 by Cheng-Prusoff, Kd neurotensin 100 nM
Sequence of hSortilin (Q99523 34-755): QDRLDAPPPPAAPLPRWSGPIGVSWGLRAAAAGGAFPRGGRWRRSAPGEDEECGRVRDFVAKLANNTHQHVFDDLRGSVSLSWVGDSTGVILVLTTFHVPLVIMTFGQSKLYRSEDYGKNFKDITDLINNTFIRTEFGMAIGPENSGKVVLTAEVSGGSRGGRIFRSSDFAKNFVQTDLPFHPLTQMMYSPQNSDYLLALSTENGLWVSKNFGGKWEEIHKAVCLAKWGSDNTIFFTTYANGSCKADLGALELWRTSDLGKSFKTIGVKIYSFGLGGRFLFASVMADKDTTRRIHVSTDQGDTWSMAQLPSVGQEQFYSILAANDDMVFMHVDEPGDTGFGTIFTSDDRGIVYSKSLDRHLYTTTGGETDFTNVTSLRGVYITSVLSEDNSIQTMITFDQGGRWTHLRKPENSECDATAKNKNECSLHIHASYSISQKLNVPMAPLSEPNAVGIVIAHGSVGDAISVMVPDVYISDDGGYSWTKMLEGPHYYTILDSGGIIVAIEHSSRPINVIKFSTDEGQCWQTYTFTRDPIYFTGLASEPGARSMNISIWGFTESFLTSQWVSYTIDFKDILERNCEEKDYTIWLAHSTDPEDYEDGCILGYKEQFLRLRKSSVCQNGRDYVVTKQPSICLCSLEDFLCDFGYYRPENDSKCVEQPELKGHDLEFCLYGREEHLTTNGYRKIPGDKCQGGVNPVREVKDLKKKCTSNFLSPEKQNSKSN

Sequence of human sortilin (S-18 cells) (Q99523 78-831): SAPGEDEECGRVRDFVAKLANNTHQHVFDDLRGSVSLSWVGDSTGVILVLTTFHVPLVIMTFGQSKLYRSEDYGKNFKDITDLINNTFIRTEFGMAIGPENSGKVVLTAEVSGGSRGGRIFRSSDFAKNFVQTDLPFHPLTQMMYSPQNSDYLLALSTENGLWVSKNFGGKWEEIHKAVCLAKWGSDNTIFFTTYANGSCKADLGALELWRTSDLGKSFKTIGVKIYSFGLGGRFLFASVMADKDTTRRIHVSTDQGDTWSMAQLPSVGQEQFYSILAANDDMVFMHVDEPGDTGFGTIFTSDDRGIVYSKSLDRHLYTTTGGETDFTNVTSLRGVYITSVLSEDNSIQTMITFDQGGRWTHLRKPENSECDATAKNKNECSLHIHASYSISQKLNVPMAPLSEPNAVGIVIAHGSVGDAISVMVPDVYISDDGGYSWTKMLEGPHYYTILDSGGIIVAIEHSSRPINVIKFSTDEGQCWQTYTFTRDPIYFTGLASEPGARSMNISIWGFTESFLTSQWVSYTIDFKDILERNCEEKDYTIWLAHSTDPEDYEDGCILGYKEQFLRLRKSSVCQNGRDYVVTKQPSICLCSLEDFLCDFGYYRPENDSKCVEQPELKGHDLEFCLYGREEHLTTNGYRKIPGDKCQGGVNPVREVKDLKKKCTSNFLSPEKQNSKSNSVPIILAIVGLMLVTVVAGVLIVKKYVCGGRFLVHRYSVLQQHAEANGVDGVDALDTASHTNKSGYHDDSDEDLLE
Sequence of mSortilin (Q6PHU5 74-825): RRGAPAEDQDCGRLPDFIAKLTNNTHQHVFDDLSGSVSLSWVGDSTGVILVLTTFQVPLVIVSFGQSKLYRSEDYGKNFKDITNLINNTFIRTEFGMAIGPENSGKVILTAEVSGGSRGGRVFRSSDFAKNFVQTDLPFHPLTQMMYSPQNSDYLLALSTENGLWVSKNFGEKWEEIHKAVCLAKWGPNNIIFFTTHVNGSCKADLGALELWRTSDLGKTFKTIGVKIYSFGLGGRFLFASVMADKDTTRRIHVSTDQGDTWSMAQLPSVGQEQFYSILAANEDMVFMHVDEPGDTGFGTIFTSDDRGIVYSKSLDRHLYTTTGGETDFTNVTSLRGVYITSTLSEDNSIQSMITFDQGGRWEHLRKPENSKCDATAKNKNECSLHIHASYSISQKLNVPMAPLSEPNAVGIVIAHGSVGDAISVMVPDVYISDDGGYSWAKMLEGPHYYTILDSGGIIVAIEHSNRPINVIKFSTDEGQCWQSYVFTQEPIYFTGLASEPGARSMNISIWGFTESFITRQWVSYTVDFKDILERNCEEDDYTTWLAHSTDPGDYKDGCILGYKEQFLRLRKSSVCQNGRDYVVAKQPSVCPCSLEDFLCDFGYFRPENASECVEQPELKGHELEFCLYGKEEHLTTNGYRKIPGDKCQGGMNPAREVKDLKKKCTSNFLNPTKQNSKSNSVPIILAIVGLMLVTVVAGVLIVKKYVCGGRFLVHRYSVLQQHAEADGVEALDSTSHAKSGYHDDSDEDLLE
Sequence of human sortilin (HEK 293 / S-18 cells) (Q99523 78-831): as the sequence (Q99523 78-831) above

Compound	IC50 (hSortilin) [nM]	Ki (hSortilin) [nM]	further results
Cc1cccc(NC(=O)c2ccc(C(F)(F)F)cc2C(=O)O)n1 [Example 1, N-(6-Methyl-pyridin-2-yl)-5-trifluoromethyl-phthalamic acid]			IC50 (mSortilin; [3H]-Neurotensin 5 nM, 50 nM 6his-Sortilin, read-out: mSortilin NTS Binding IC50): 220 nM; Ki (mSortilin; from IC50 by Cheng-Prusoff): 210 nM; PGRN fluorescence intensity / binding or endocytosis of PGRN to sortilin expressing cells (FIG. 2) [1]: blocks binding or endocytosis of PGRN; increase in PGRN in cell culture media as compared to control wells ([2]; 10 uM, media collected on day 3): 85-100%; PGRN levels in cell culture media (FIG. 1) [2]: increase in PGRN levels
Cc1cc(NC(=O)c2cc(Cl)c(Cl)cc2C(=O)O)ccn1 [Example 12, 4,5-Dichloro-N-(2-methyl-pyridin-4-yl)-phthalamic acid]	1800	1710	
Cc1cccc(NC(=O)c2ccc(Br)cc2C(=O)O)n1 [Example 2, 5-Bromo-N-(6-methyl-pyridin-2-yl)-phthalamic acid]	1200	1140	
O=C(O)c1cc(C(F)(F)F)ccc1C(=O)NCc1cccnc1 [Example 40, N-Pyridin-3-ylmethyl-5-trifluoromethyl-phthalamic acid]	4800	4570	
scrambled neurotensin: scrambled neurotensin, sequence LIYPRNEYELRKP (SEQ ID NO:1); negative control (Scrambled Human Neurotensin) [reference compound]			PGRN fluorescence intensity / binding or endocytosis of PGRN to sortilin expressing cells (FIG. 2) [1]: significantly increased; PGRN levels in cell culture media (FIG. 1) [2]: did not have any effect
O=C(O)c1cc(Br)ccc1C(=O)Nc1cccnc1 [Example 26]	5500	5240	
Cc1cccc(NC(=O)c2cc(Cl)c(Cl)cc2C(=O)O)n1 [Example 5, 4,5-Dichloro-N-(6-methyl-pyridin-2-yl)-phthalamic acid]	830	790	
O=C(O)c1cc(C(F)(F)F)ccc1C(=O)NCc1ccccn1 [Example 38, N-Pyridin-2-ylmethyl-5-trifluoromethyl-phthalamic acid]	1600	1520	
Cc1cc(NC(=O)c2ccc(Br)cc2C(=O)O)ccn1 [Example 25, 5-Bromo-N-(2-methyl-pyridin-4-yl)-phthalamic acid]	1800	1710	
Cc1ccc(NC(=O)c2ccc(Br)cc2C(=O)O)nn1 [Example 32, 5-Bromo-N-(6-methyl-pyridazin-3-yl)-phthalamic acid]	3200	3050	
C=C(C)c1ccc(C(=O)Nc2cccc(C)n2)c(C(=O)O)c1 [Example 42, N 5-Isopropenyl-N-(6-methyl-pyridin-2-yl)-phthalamic acid]	5200	4950	

Further compounds by falling IC50 (hSortilin), results first:

IC50 (hSortilin) [nM]	Ki (hSortilin) [nM]	Compound	further results
760	721	O=C(O)c1cc(C(F)(F)F)c(C(F)(F)F)cc1C(=O)Nc1ccc2c(n1)CCCC2 [Example 48, 2-((5,6,7,8-tetrahydroquinolin-2-yl)carbamoyl)-4,5-bis(trifluoromethyl)benzoic acid]	
570	543	Cc1ccc(NC(=O)c2ccc(Br)cc2C(=O)O)nc1C [Example 23, 5-Bromo-N-(5,6-dimethyl-pyridin-2-yl)-phthalamic acid]	
480	457	Cc1ccc(NC(=O)c2cc(Cl)c(Cl)cc2C(=O)O)nc1C [Example 11, 4,5-Dichloro-N-(5,6-Dimethyl-pyridin-2-yl)-phthalamic acid]	
200	190	Cc1cnc(NC(=O)c2ccc(C(F)(F)F)cc2C(=O)O)nc1C [Example 45, 2-((4,5-dimethylpyrimidin-2-yl)carbamoyl)-5-(trifluoromethyl)benzoic acid]	
88	84	O=C(O)c1cc(C(F)(F)F)ccc1C(=O)Nc1ccc2c(n1)CCCC2 [Example 46, 2-((5,6,7,8-tetrahydroquinolin-2-yl)carbamoyl)-5-(trifluoromethyl)benzoic acid]	
